Reference: patent US20030153603A1, “Agent for enhancing accumulation of drugs in tumor tissues” (Toray Industries, Inc., priority 1999, published 2003)

How the values were obtained:
Format in all cases: in vivo, Donryu rats
tumor tissue [1] = test: Permeability of Evans Blue in tumor tissue, beraprost sodium arterially administered vs not administered; details: 2 μg injected into common iliac artery; A 136B solid tumor on dorsum of foot; P<0.01
Experimental: (§1) A 136B cells were transplanted to dorsa of feet of Donryu rats to form solid tumors. To each of the tumor-bearing rats, 0.5 mL of solution of Evans Blue (1.5%) in physiological saline was administered i.v. and then 2 μg of beraprost sodium was injected into common iliac artery which is the tumor-controlling artery. The blood vessel perneability-increasing effect was evaluated by comparing the amounts of the accumulated Evans Blue-albumin complex in the tissue, which is the index of the blood vessel permeability in the tumor tissue, of the beraprost sodium-administered group and of the non-administered group. As a result, it was observed that by administration of 2 μg of beraprost sodium, the blood vessel permeability was increased to about 3.4 times that of the non-administered group (P<0.01). The amount of the accumulated Evans Blue was spectrophotometrically quantified after extraction with formamide at 30° C. for 48 hours.

tumor tissue [2] = test: Change in blood flow in various tissues after 0.2, 2 or 20 μg beraprost sodium (Doppler type blood flowmeter); details: 0.2, 2 or 20 μg injected
Experimental: as §1, with “hours. Into common iliac artery which is the tumor-controlling artery of the tumor on the dorsum of foot of each of the tumor-bearing rats prepared in the same manner as in Examples 1 to 3, 0.2, 2, or 20 μg of beraprost sodium was arterially injected and the change in the blood flow was measured by a Doppler type blood flowmeter. […]” for “hours.”

tumor tissue [3] = test: Change in blood flow in various tissues by continuous arterial injection (Doppler type blood flowmeter)
Experimental: as §1, with “hours. Into common iliac artery which is the tumor-controlling artery of the tumor on the dorsum of foot of each of the tumor-bearing rats prepared in the same manner as in Examples 1 and 2, 0.3 mL of beraprost sodium solution (30 μg/mL) in middle-length fatty acid was arterially injected continuously for 1 minute. The changes in the blood flow in various tissues were measured by a Doppler type blood flowmeter. The rate of change was expressed in terms of % of the average during 10 minutes after the beginning of the arterial injection based on the average during several minutes before the arterial injection. […] This was the phenomenon brought about by the specific relaxation of the blood vessels in the tumor tissues.” for “hours.”

tumor tissue [4] = test: Permeability of Evans Blue in various tissues, beraprost sodium intravenously administered vs not administered; details: 20 μg injected into the tail vein; tumor-bearing rats; P<0.05
Experimental: as §1, with “hours. […] The blood vessel permeability-increasing effect was evaluated by comparing the amounts of the accumulated Evans Blue-albumin complex in the tissues of the beraprost sodium-administered group and of the non-administered group. […] The amount of the accumulated Evans Blue was quantified in the same manner as in Example 1.” for “hours.”

## CC#CCC(C)[C@H](O)/C=C/C1[C@H](O)C[C@@H]2Oc3c(CCCC(=O)O)cccc3[C@H]12 (stereo partly shown) [beraprost sodium]
Tumor tissue [1]
  blood vessel permeability (accumulated Evans Blue-albumin complex in tumor tissue): about 3.4 times that of the non-administered group
Tumor tissue [2]
  decrease in the blood flow in normal tissue organs such as liver and kidney: not observed
Tumor tissue [2]; average during 10 minutes after start vs before
  blood flow in the tumor: Sharp decrease
Tumor tissue [3]; continuous arterial injection at 10 μg/kg/min, P<0.05
  blood flow in the tumor compared with kidney: significantly more decreased than in kidney
Tumor tissue [3]; continuous arterial injection at 17 μg/kg/min, tumor vs. liver P<0.05, tumor vs. kidney P<0.01
  blood flow in the tumor compared with kidney and liver: significantly more decreased than in kidney and in liver
Tumor tissue [3]; continuous arterial injection for 1 minute into common iliac artery, average during 10 minutes after start vs before
  blood flow in the tumor tissue: sharply decreased dose-dependently
Tumor tissue [4]
  blood vessel permeability (accumulated Evans Blue-albumin complex in the tissues): about 1.5 times that of the non-administered group
